From patent publication US20230339977A1, “SUBSTITUTED HETEROARYL COMPOUND, AND COMPOSITION AND APPLICATION THEREOF” (SUNSHINE LAKE PHARMA CO., LTD., priority 2020, published 2023)

Test system: JAK2/TYK2
Test: Cell level activity test of JAK2/TYK2 (IL-12 mediated IFNγ expression in NK92 cells)
Format: cell-based
Conditions: IFNγ in supernatant by ELISA, NK92 cells with IL-12, 24 h
From the text: TYK2 belongs to the JAK family, and can accept the ligand acting on the coupled receptor signal to regulate downstream signal activator of transcription (STAT) phosphorylation. Phosphorylation of STAT can regulate the expression of downstream related genes, leading to changes in physiological functions such as cell proliferation and differentiation. IL-12 mediates IFNγ expression in NK92 cells through JAK2/TYK2.
Therefore, by inhibiting TYK2 activity, inhibition of this cascade pathway leads to a decrease in IFNγ expression. However, IL-2 can induce NK92 proliferation and produce IFNγ through receptor-coupled […], so the influence of IL-2 needs to be ruled out. In this experiment, the activity of compounds on JAK2/TYK2 was evaluated by detecting the expression of IFNγ at various compound concentrations.
The test compound was dissolved in DMSO, prepared into a 20 mM stock solution, and stored at -20° C. for future use. The mother solution was diluted 10 times with DMSO to make a 2 mM solution, then diluted with medium to an initial concentration of […], and then diluted 3-fold with medium containing 5% DMSO to obtain a prepared concentration gradient of […], 33333.3 nM, 11111.1 nM, 3703.70 nM, 1234.57 nM, 411.523 nM, 137.174 nM, 45.7247 nM, 15.2416 nM; 10 ul of the above-mentioned concentration of drugs were added into a 96-well plate to obtain the final concentrations of […], 3333.3 nM, 1111.1 nM, 370.4 nM, 123.5 nM, 41.1 nM, 13.7 nM, 4.6 nM, 1.52 nM;
NK92 cells were resuscitated and cultured, 16 h before the experiment, the medium was replaced with interleukin-free medium. The mixture was centrifuged and IL-12 medium was added to resuspend the cells, seeded 95 ul in a 96-well plate at a density of 20,000 cells/well, 10 ul of the above gradual dilution was added and incubated for 24 h, centrifuged to take the supernatant, diluted 3-fold with pure water, and the IFNγ concentration of the supernatant was detected by ELISA, the IC50 value was calculated.

Compound	IC50 (NK92, 24 h) [nM]	IC50 [nM]
CC(=O)Nc1cc2c(-c3cc(OCC[C@@H](C)O)c4c(n3)C3(CCOC3)OCC4)cn(C)c2cn1 (stereo partly drawn) [Example 37, N-(3-(4′-((R)-3-Hydroxybutoxy)-4,5,5′,6′-Tetrahydro-2H-Spiro[Furan-3,8′-Pyrano[3,4-b]Pyridin]-2′-yl)-1-Methyl-1H-Pyrrolo[2,3-c]Pyridin-5-yl)Acetamide]	20	
CC(=O)Nc1cc2c(-c3cc(COCC(C)(C)O)c4c(n3)C3(CCOC3)OCC4)cn(C)c2cn1 (centres unmarked) [Example 45, N-(3-(4′-((2-Hydroxy-2-Methylpropoxy)Methyl)-4,5,5′,6′-Tetrahydro-2H-Spiro[Furan-3,8′-Pyrano[3,4-b]Pyridin]-2′-yl)-1-Methyl-1H-Pyrrolo[2,3-c]Pyridin-5-yl)Acetamide]	111	
CO[C@@H](C)CCOc1cc(-c2cn(C)c3cnc(NC(C)=O)cc23)nc2c1CCOC21CCOC1 (stereo partly drawn) [Example 38, N-(3-(4′-((S)-3-Methoxybutoxy)-4,5,5′,6′-Tetrahydro-2H-Spiro[Furan-3,8′-Pyrano[3,4-b]Pyridin]-2′-yl)-1-Methyl-1H-Pyrrolo[2,3-c]Pyridin-5-yl)Acetamide]		27.7
CC(=O)Nc1cc2c(-c3cc(SCCC(C)(C)O)c4c(n3)C3(CCOC3)OCC4)cn(C)c2cn1 (centres unmarked) [Example 44, N-(3-(4′-((3-Hydroxy-3-Methylbutyl)Thio)-4,5,5′,6′-Tetrahydro-2H-Spiro[Furan-3,8′-Pyrano[3,4-b]Pyridin]-2′-yl)-1-Methyl-1H-Pyrrolo[2,3-c]Pyridin-5-yl)Acetamide]	40.2	
CC(=O)Nc1cc2c(-c3cc(OCCCO)c4c(n3)C3(CCOC3)OCC4)cn(C)c2cn1 (centres unmarked) [Example 34, N-(3-(4′-(3-Hydroxypropoxy)-4,5,5′,6′-Tetrahydro-2H-Spiro[Furan-3,8′-Pyrano[3,4-b]Pyridin]-2′-yl)-1-Methyl-1H-Pyrrolo[2,3-c]Pyridin-5-yl)Acetamide]	34.3	
COCCOCCCOc1cc(-c2cn(C)c3cnc(NC(C)=O)cc23)nc2c1CCOC21CCOC1 (centres unmarked) [Example 32, N-(3-(4′-(3-(2-Methoxyethoxy)Propoxy)-4,5,5′,6′-Tetrahydro-2H-Spiro[Furan-3,8′-Pyrano[3,4-b]Pyridin]-2′-yl)-1-Methyl-1H-Pyrrolo[2,3-c]Pyridin-5-yl)Acetamide]	30.6	
CC(=O)Nc1cc2c(-c3cc(OCCCOC(F)F)c4c(n3)C3(CCOC3)OCC4)cn(C)c2cn1 (centres unmarked) [Example 33, N-(3-(4′-(3-(Difluoromethoxy)Propoxy)-4,5,5′,6′-Tetrahydro-2H-Spiro[Furan-3,8′-Pyrano[3,4-b]Pyridin]-2′-yl)-1-Methyl-1H-Pyrrolo[2,3-c]Pyridin-5-yl)Acetamide]	38.6	
CC(=O)Nc1cc2c(-c3cc(NCCC(C)(C)O)c4c(n3)C3(CCOC3)OCC4)cn(C)c2cn1 (centres unmarked) [Example 48, N-(3-(4′-((3-Hydroxy-3-Methylbutyl)Amino)-4,5,5′,6′-Tetrahydro-2H-Spiro[Furan-3,8′-Pyrano[3,4-b]Pyridin]-2′-yl)-1-Methyl-1H-Pyrrolo[2,3-c]Pyridin-5-yl)Acetamide]	115	
CC(=O)Nc1cc2c(-c3cc(OCCC(C)(C)C#N)c4c(n3)C3(CCOC3)OCC4)cn(C)c2cn1 (centres unmarked) [Example 40, N-(3-(4′-(3-Cyano-3-Methylbutoxy)-4,5,5′,6′-Tetrahydro-2H-Spiro[Furan-3,8′-Pyrano[3,4-b]Pyridin]-2′-yl)-1-Methyl-1H-Pyrrolo[2,3-c]Pyridin-5-yl)Acetamide]	152	
COCCOCc1cc(-c2cn(C)c3cnc(NC(C)=O)cc23)nc2c1CCOC21CCOC1 (centres unmarked) [Example 36, N-(3-(4′-((2-Methoxyethoxy)Methyl)-4,5,5′,6′-Tetrahydro-2H-Spiro[Furan-3,8 ‘-Pyrano[3,4-b]Pyridin]-2′-yl)-1methyl-1H-Pyrrolo[2,3-c]Pyridin-5-yl)Acetamide]	52.9	
COCC(C)(C)COc1cc(-c2cn(C)c3cnc(NC(C)=O)cc23)nc2c1CCOC21CCOC1 (centres unmarked) [Example 30, N-(3-(4′-(3-Methoxy-2,2-Dimethylpropoxy)-4,5,5′,6′-Tetrahydro-2H-Spiro[Furan-3,8′-Pyrano[3,4-b]Pyridin]-2′-yl)-1-Methyl-1H-Pyrrolo[2,3-c]Pyridin-5-yl)Acetamide]	102	
CC(=O)Nc1cc2c(-c3cc(OCCC(C)(C)O)c4c(n3)C3(CCOC3)OCC4)cn(C3COC3)c2cn1 (centres unmarked) [Example 49, N-(3-(4′-(3-Hydroxy-3-Methylbutoxy)-4,5,5′,6′-Tetrahydro-2H-Spiro[Furan-3, 8′-Pyrano[3,4-b]Pyridin]-2′-yl)-1-(Oxetan-3-yl)-1H-Pyrrolo[2,3-c]Pyridin-5-yl)Acetamide]	68.1	
COC(C)CCOc1cc(-c2cn(C)c3cnc(NC(C)=O)cc23)nc2c1CCOC21CCOC1 (stereo in doubt) [Example 43, N-(3-(4′-((R)-3-Methoxybutoxy)-4,5,5′,6′-Tetrahydro-2H-Spiro[Furan-3,8′-Pyrano[3,4-b]Pyridin]-2′-yl)-1-Methyl-1H-Pyrrolo[2,3-c]Pyridin-5-yl)Acetamide]	26.4	
CC(=O)Nc1cc2c(-c3cc(CC#N)c4c(n3)C3(CCOC3)OCC4)cn(C)c2cn1 (centres unmarked) [Example 42, N-(3-(4′-(Cyanomethyl)-4,5,5′,6′-Tetrahydro-2H-Spiro[Furan-3,8′-Pyrano[3,4-b]Pyridin]-2′-yl)-1-Methyl-1H-Pyrrolo[2,3-c]Pyridin-5-yl)Acetamide]	9.6	
CC(=O)Nc1cc2c(-c3cc(OCCC(C)(C)O)c4c(n3)C3(CCOC3)OCC4)cn(C(C)C)c2cn1 (centres unmarked) [Example 50, N-(3-(4′-(3-Hydroxy-3-Methylbutoxy)-4,5,5′,6′-Tetrahydro-2H-Spiro[Furan-3, 8′-Pyrano[3,4-b]Pyridin]-2′-yl)-1-Isopropyl-1H-Pyrrolo[2,3-c]Pyridin-5-yl)Acetamide]	47	
CC(=O)Nc1cc2c(-c3cc(OCC[C@H](C)O)c4c(n3)C3(CCOC3)OCC4)cn(C)c2cn1 (stereo partly drawn) [Example 39, N-(3-(4′-((S)-3-Hydroxybutoxy)-4,5,5′,6′-Tetrahydro-2H-Spiro[Furan-3,8′-Pyrano[3,4-b]Pyridin]-2′-yl)-1-Methyl-1H-Pyrrolo[2,3-c]Pyridin-5-yl)Acetamide]	11	
CC(=O)Nc1cc2c(-c3cc(OCC(C)(C)CO)c4c(n3)C3(CCOC3)OCC4)cn(C)c2cn1 (centres unmarked) [Example 35, N-(3-(4′-(3-Hydroxy-2,2-Dimethylpropoxy)-4,5,5′,6′-Tetrahydro-2H-Spiro[Furan-3,8′-Pyrano[3,4-b]Pyridin]-2′-yl)-1-Methyl-1H-Pyrrolo[2,3-c]Pyridin-5-yl)Acetamide]	20.4	
